Assay results taken from article PMC9748900, “Unconventional isoquinoline-based SERMs elicit fulvestrant-like transcriptional programs in ER+ breast cancer cells” (NPJ Breast Cancer, 2022).
“Also recorded” adds a separate entry of the source. One block for each compound: values may come before it.

Key:
halo-ERα = target: T1, halo-ERα (Homo sapiens, UniProt P03372); assay: Live-cell halo-ERα accumulation assay in T47D cells; type: cell-based; conditions: 1 μM, 24 h
T1 construct: expressed in transfected cells; host or cells: T47D cells, doxycycline-inducible halo-ERα
T1 sequence (P03372 1-595): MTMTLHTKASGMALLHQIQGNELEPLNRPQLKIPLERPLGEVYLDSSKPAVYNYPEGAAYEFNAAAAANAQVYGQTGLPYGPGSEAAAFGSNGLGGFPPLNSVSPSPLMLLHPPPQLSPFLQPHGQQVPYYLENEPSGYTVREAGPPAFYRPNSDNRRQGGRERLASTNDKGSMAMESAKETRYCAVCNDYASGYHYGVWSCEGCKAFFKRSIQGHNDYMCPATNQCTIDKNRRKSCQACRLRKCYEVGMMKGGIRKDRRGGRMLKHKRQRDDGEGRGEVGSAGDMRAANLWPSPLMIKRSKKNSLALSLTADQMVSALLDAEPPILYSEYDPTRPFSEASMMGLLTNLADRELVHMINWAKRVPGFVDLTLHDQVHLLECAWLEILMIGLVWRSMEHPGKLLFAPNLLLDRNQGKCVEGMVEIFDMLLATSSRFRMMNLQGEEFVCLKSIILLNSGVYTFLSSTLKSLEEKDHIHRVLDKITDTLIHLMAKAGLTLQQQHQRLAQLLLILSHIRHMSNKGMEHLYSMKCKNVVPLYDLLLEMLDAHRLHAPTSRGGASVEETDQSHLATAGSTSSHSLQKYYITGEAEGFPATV
From the text: SERMs and SERDs differentially affect ERα cellular lifetime/accumulation, which correlates with tissue-specific partial agonistic activities. SERMs increase WT ERα lifetime and are partial agonists in the bone and uterine epithelium by maintaining AF-1-dependent transcriptional coactivator recruitment. SERDs induce rapid WT ERα degradation and are pure antagonists[14],[17],[19],[22],[33]. […] We used an in-cell Western approach to measure how a subset of T6Is affected ERα levels in MCF7:WS8 breast cancer cells. […] A live cell halo-tagged ERα assay was then used to measure the impact of an expanded set of T6Is on receptor accumulation in T47D breast cancer cells after 24 h treatment. […] The difference between T6I-14 and 4OHT was not statistically significant in this assay. […] The IC50 values generally trended with observed differences in transcriptional IC50 (Fig. 2), while the effect at maximum dose varied greatly.
This assay was performed in accordance with a previous report. T47D breast cancer cells with a halo-ERα under a doxycycline (dox) control were grown in 96-well dishes starting at 3000 cells per well. Cells were placed in serum-starved media for 48–72 h then simultaneously treated with 1 µg/mL dox, and 1 µM Halo-TMR direct (Promega, G2991) alongside 5 pm to 1 µM compound for 24 h. […]

ERα-SRC3 binding = target: T2, ERα-SRC3 binding (Homo sapiens, UniProt P03372); assay: NanoBiT ERα-SRC3 assay in HEK293T cells; type: cell-based; conditions: 1 μM antagonist + 1 nM E2, 4 h
T2 construct: expressed in transfected cells; host or cells: HEK293T, transient co-transfection of pcDNA3.1 plasmids (gift of D. P. McDonnell)
T2 sequence (P03372 1-595): T1 sequence (P03372 1-595)
Method: SERMs and SERDs favor an ERα LBD protein conformation that occludes transcriptional coactivator binding. We used nanoBiT to study how the first set of T6I molecules inhibited ERα and steroid receptor coactivator-3 (SRC3) binding in HEK293T cells. […] Plasmids for smBiT-ERα and lgBiT-SRC3 were kindly donated by Dr. Donald P. McDonnell. Plasmids were co-transfected into HEK293T cells and placed in serum-starved medium for 48 h.
HEK293T cells were grown in 96-well clear bottom, white-walled plates to around 70% confluence. PCDNA 3.1 plasmids containing N-terminally tagged smBiT ERα or lgBiT SRC3 nuclear recognition domain (NRD) were kindly donated by Dr. Donald P. McDonnell. These plasmids were co-transfected with a total of 0.1 µg smBiT ERα and 0.1 µg LgBiT SRC3 NRD using Turbofectin 8.0 at a 3:1 ratio. After 24 h cells were placed in serum-starved media and allowed to acclimate for an additional 48–72 h. […] Data shown are the average of three independent replicates.

[1] = system: Ishikawa endometrial cells; assay: Alkaline phosphatase (AP) assay in Ishikawa cells; type: cell-based, human; conditions: 1 nM E2 or 1 μM compound, 72 h, absorbance at 405 nm, mean + std. dev., n = 3-9
From the text: SERM enhancement of ERα accumulation in breast cancer cells correlates with uterotrophic activities[22],[30]. Despite the inclusion of side arms from known SERDs, most T6Is appeared SERM-like in breast cancer cells as they increased ERα levels. To measure the SERM-agonist activities of the T6Is, we employed an AP activity assay in Ishikawa endometrial cells[22],[32],[40]. […] Many T6Is show unexpected AP activities in these cells. […] Therefore, we would expect these SERMs to show a greater induction of AP (Supplementary Fig. 5). […] This difference was significant (p = 0.004) compared to 4OHT, which measured 0.68 ± 0.12 absorbance units. In most studies of SERM-agonist activities, AP assays are combined with increases in uterine wet-weight in vivo[22],[41],[42].
AP assays were performed as described. Briefly, 15,000 Ishikawa cells were seeded into 96-well plates then placed in serum-starved medium for 48–72 h. Cells were treated for three days with veh, hormone, SERM, or SERD. The media was aspirated and the cells were frozen at −80 °C for at least 24 h. Cells were thawed then incubated with p-nitrophenyl phosphate (ThermoFisher) chromogenic AP substrate. After 60 min at 40 °C, absorbance was read at 405 nm on a BioTek Cytation 5 plate reader.

ERα [2] = target: T3, ERα (Homo sapiens, UniProt P03372); assay: ERE transcriptional reporter gene assay in MCF7 cells; type: cell-based; set-up: endogenous in cells; host or cells: MCF7 cells with 3x-ERE-GFP reporter; conditions: MCF7, 1 nM E2
T3 sequence (P03372 1-595): T1 sequence (P03372 1-595)
Method: A cyclopropyl group was used in place of RAD1901’s ethylamine. […] We initially synthesized 4 derivatives comprised of different pharmacophores on the analogous steroidal A ring (Fig. 2d) and used an ERE reporter gene assay in MCF7 breast cancer cells to measure their transcriptional inhibitory activities.
This assay was performed in accordance with a previous report. MCF7 breast cancer cells with a 3x-estrogen response element-green fluorescent protein (GFP) reporter gene construct under a CMV promoter were plated in 96-well dishes at 3000 cells per well. Cells were cultured for 48 h in stripped media that included charcoal stripped fetal bovine serum (FBS). Cells were treated with increasing concentrations of antiestrogen (5 pm to 1 µM) for 24 h. Subsequently, percent GFP-positive cells were imaged using a BioTek Cytation 5 live cell imager. All assays were performed three times with three technical replicates each.

T47D breast cancer cells = assay: Cellular proliferation (label-free cell count), T47D; type: cell-based; conditions: 0.1 and 1 μM, 1 nM E2
Method: (§1) In addition, we used a crystal violet assay to measure the effect of T6I-14-1 on MCF7 viability.
MCF7, MCF7:WS:8, Y537S ESR1 MCF7 and T47D breast cancer cell lines were grown in 96-well dishes at a starting cell count of 1000 cells per well. […] Cells were grown in a BioSpa attached to a BioTek Cytation 5 and were automatically counted every twelve hours for 7–10 days or until the E2-only wells reached confluence. Media was replaced every 4 days and drug was maintained in each media change. Each study was repeated three times with three technical replicates each.

MCF7 breast cancer cells = assay: Crystal violet cellular viability assay; type: cell-based; conditions: MCF7, 1 to 1000 nM, 1 nM E2, 7 days
Method: as §1
MCF7 breast cancer cells were placed in 24-well dishes at 15,000 cells per well. After 24 h, they were placed in serum-starved media for 48 to 72 h. […] After treatment, cells were stained with 0.4% crystal violet in 50% methanol for 30 min. Cells were washed with PBS to remove excess dye. 500 µL of methanol was then added to each well to dissolve the dye and placed on a rocker for 30 min at room temperature and the absorbance at 570 was recorded.

ERα [3] = target: T3, ERα; assay: In-cell Western of ERα levels in T47D cells; type: cell-based; set-up: In-cell Western of endogenous ERα levels normalized to cell count in T47D breast cancer cells; endogenous in cells; host or cells: T47D breast cancer cells; conditions: 1 μM
Method: An in-cell Western assay was used to measure the effect of the purified T6I-29 enantiomers on the accumulation of ERα in T47D breast cancer cells at 1 μM dose.
In-cell Western analysis was performed in a similar manner as previously described. Briefly, T47D or MCF7:WS8 breast cancer cells were grown in blackout 96-well plates starting at 3000 cells per well. After 24 h, cells were placed in serum-starved media and allowed to acclimate for 48–72 h. Cells were treated with hormone, SERM, or SERD alongside vehicle control for 24 h. Only interior wells were used to avoid edge effects. Cells were fixed with 4% formaldehyde and permeabilized with 0.1% Triton X-100. Plates were blocked with Intercept blocking buffer (LI-COR). Santa Cruz F10 anti-ERα antibody (sc-8002) was used as the primary at 1:200-500 dilution. Secondary antibody was a goat anti-mouse IgG 800 IRDye antibody (926-32210) from LI-COR. Cells were also treated with CellTag700 (926-41090) to control for differences in cell count between wells. All data were collected on a LI-COR Odyssey DLx and analyzed using Emperia Studio. Each experiment was comprised of three replicates.

[4] = system: gene expression in T47D breast cancer cells; assay: qPCR gene expression in T47D cells; type: cell-based; conditions: 1 μM + 1 nM E2, 16 h
[5] = system: transcriptome of T47D breast cancer cells; assay: RNA sequencing of T47D cells; type: cell-based
Method: We next used RNA transcriptomic analysis (RNAseq) to identify differentially affected genes. […] All sequencing runs were performed with three replicates per treatment.
T47D breast cancer cells were grown in 6-well dishes at 50,000 cells per well. […] After 24 h, they were placed in serum-starved media for 48 h. […] RNA was isolated using a Qiagen RNeasy Kit then sent to Novogene for sequencing and bioinformatics analysis.

SUMO1 = SUMO1 immunofluorescence in T47D cells; type: cell-based; conditions: 1 µM, 16 h
Method: Immunofluorescence was used to study the effects of these treatments on SUMO1 protein expression in these cells. […] Cellular localization was resolved using phalloidin to stain actin and DAPI to stain nuclei. […] Further studies are needed to decipher the role and estrogen dependence of SUMO1 in ER + breast cancer pathology.
T47D cells were cultured on coverslips for 24 h followed by 48 h growth in serum starved media. […] Cells were fixed for 10 min with 4% paraformaldehyde at room temperature was followed by three washes with ice-cold PBS-T (0.1% Tween 20, PBS) and 10 min of permeabilization with 0.5% saponin in PBS. Blocking was performed with 1% bovine serum albumin (BSA) in PBS-T for 30 min. Cells were incubated in a humidified chamber with 1:500 rabbit monoclonal anti-SUMO1 antibody (Abcam Ltd, Cambridge, UK, ab32058) in 1% BSA for 1 h at room temperature. Cells were washed 3 times with PBS-T, then incubated in the dark for 1 h with 1:1000 goat anti-rabbit IgG H&L (Alexa Fluor® 488) antibody (Abcam Ltd, ab150077) as well as 1:1000 phalloidin-iFluor 594 reagent (Abcam Ltd, ab176757) in 1% BSA. […] Quantification of nuclear fluorescent signal was performed using ImageJ 1.53t software. Fluorescent intensity of all nuclei within captured frames were measured and normalized by subtracting mean background fluorescence of 5 representative areas.

[6] = system: gene expression in MCF7:WS8 breast cancer cells; assay: qPCR gene expression in MCF7:WS8 cells

inhibition of ERα-SRC3 binding (luminescence) (ERα-SRC3 binding): the least | anti-transcriptional activity (in words) (ERα [2]): ineffective anti-transcriptional agent
Structure (SMILES): CCN1CC(Oc2ccc(C3c4ccc(O)cc4CC4(CC4)N3C(=O)c3ccccc3)cc2)C1 (stereo not shown) [T6I-1]
halo-ERα accumulation at maximum dose (halo-ERα): SERD-like decrease to ERα levels; also recorded: weak ERα-degrading activities | AP1 Induction [1]: 0.30 + 0.07

ERα levels by in-cell Western (ERα [3]): enhanced ERα levels past 4OHT
Structure (SMILES): CCCN1CCC(COc2ccc(C3c4ccc(O)cc4CC4(CC4)N3C(=O)c3ccccc3)cc2)C1 (stereo not shown) [T6I-14-1]
inhibition of ERα-SRC3 binding (luminescence) (ERα-SRC3 binding): among the most potent; also recorded: significant reduction compared to both 4OHT (p = 0.03) and E2 (p = 0.004) | cell count after 7 days (fold-change normalized to vehicle) (T47D breast cancer cells): significantly more effective (p = 0.01) than ICI | cellular viability (crystal violet) (MCF7 breast cancer cells): reduced MCF7 cellular viability across all doses compared to 4OHT and ICI | AP1 Induction [1]: 0.55 + 0.09

Structure (SMILES): C[C@]12CC[C@@H]3c4ccc(O)cc4C[C@@H](CCCCCCCCC[S+]([O-])CCCC(F)(F)C(F)(F)F)[C@H]3[C@@H]1CC[C@@H]2O (stereo partly shown) [ICI, fulvestrant]
E2F1 mRNA [4]: reduced impact | SUMO-related differentially expressed genes (RNAseq) [5]: upregulated SUMO1 and downregulated the SENP enzymes | Reactome pathways relating to SUMO E3 ligases ([5]; 1 μM + 1 nM E2): significantly enriched | SUMO1 protein expression (immunofluorescence) (SUMO1): enriched SUMO1 expression in the nuclei | AP1 Induction [1]: 0.25 + 0.08 | CDK1 mRNA ([6]; MCF7:WS8): downregulated its expression | E2F1, CDK1 and SUMO1 mRNA ([6]; MCF7:WS8, compared with T47D): greater downregulation of E2F1 and CDK1 and upregulation of SUMO1
